Measurements taken from patent publication US20130183686A1, “METHOD OF EVALUATING IMMUNOSUPPRESSION” (priority 2008, published 2013).
“Also recorded” adds a separate entry of the source.

Columns and labels:
Assay type in all cases: cell-based, human
NFAT [1] = experiment: PMA/Ion-induced NFAT activation potential in CD4+ and CD8+ T cells of stable transplant recipients receiving tacrolimus
Procedure: Protocol to measure the NF-κB and/or NFAT activation potential in immunophenotypically defined cell populations: Obtain peripheral blood sample in sodium heparin container. Keep PBL sample at ambient room temperature. Prepare sufficient number of 15 mL polypropylene tubes (10-9152N, Niagara Scientific, Lancaster, N.Y.) to accommodate the number of variables to be tested. One tube is needed for the unstimulated control, one for the unstimulated cell line control (HL60 […] or Jurkat) and two (1 for HL60 and 1 for patient sample) for each of the stimulation conditions to be tested (e.g. PMA/Ion, TNFα, CD3/CD28, etc.). Aliquot 500 μl whole blood per tube for the patient samples. For cell line controls, add enough volume from culture flask to yield 2×10^6 cells/tube. […]
Cell line controls are washed in 1× Phosphate Buffered saline solution (1×PBS) (Mediatech, Herndon, Va.), and then fixed by adding 1 ml of a 4% solution of methanol free Formaldehyde (Polysciences, Warrington, Pa.) at room temperature for 10 minutes. Cells are washed twice in 1×PBS, spin, and resuspend cell pellets in residual volume (they are now ready to be probed for NF-κB and/or NFAT and are left at room temperature until whole blood samples are ready). […] Cells are now ready to be probed for NF-κB and/or NFAT. […] Samples are then washed in 1×PBS and are ready to be run on the imaging cell sorting machine. […]

NFAT [2] = experiment: PMA/Ionomycin-induced NFAT translocation in healthy donor cells, imaging flow cytometry
NFAT1 = experiment: PMA/Ionomycin-induced NFAT1 translocation in Jurkat cells incubated in patient plasma obtained after in vivo tacrolimus administration; conditions: patient plasma obtained between 1 h and 12 h after tacrolimus administration (FIGS. 8 and 9)
NFkB = experiment: PMA/Ionomycin-induced NFkB activation in healthy donor CD4+ cells in plasma, imaging flow cytometry; conditions: increasing concentrations of Tacrolimus (FIG. 6)

## C=CC[C@@H]1/C=C(\C)C[C@H](C)C[C@H](OC)[C@H]2O[C@@](O)(C(=O)C(=O)N3CCCC[C@H]3C(=O)O[C@H](/C(C)=C/[C@@H]3CC[C@@H](O)[C@H](OC)C3)[C@H](C)[C@@H](O)CC1=O)[C@H](C)C[C@@H]2OC [tacrolimus]
NFAT [1]; CD4+ and CD8+ cells of transplant recipients chronically exposed to tacrolimus
  correlation between trough tacrolimus levels and NFAT activation potential: Neither for CD4+ nor CD8+ cells was a correlation found; also recorded: no statistically significant dose-response relationship was observed
NFAT [1]; CD4+ or CD8+ cells of stable transplant recipients
  difference in NFAT activation potential before (0 h) and after (4 h) a dose: did not determine a significant difference
NFAT [2]; healthy donor CD4+ cells in plasma, increasing concentrations of Tacrolimus (FIG. 6)
  NFAT translocation potential: dose-dependent decrease
NFAT [2]; healthy donor peripheral blood, CD4+ cells in culture medium, increasing concentration of tacrolimus (FIG. 5)
  inhibition of PMA/Ion-induced NFAT translocation: dose-dependent inhibition
NFAT [2]; in vitro, spiked into tissue culture media, plasma or whole blood, naive cells (Jurkat or healthy donor CD4+ or CD8+ T cells)
  correlation between extracellular concentrations and PMA/Ionomycin-induced NFAT1 activation potential: a strong correlation is observed
NFAT1
  inhibitory effect on NFAT in cells naive to previous tacrolimus exposure: closely mirrors that of the expected plasma levels; also recorded: a good dose-response was observed
NFkB
  inhibitory effect on NFkB activation: less pronounced for NFkB but can be seen at higher drug concentrations
